Assay results from patent US20080155704A1, “Methods and Compositions for Determining in vivo Activity of BiP” (King's College London, priority 2006, published 2008).

How the values were obtained:
[1] = test system: human peripheral blood mononuclear cells; test: Human PBMC injected intraperitoneally into SCID mice; assay type: in vivo, human cells in SCID mice
Method: Human peripheral blood mononuclear cells (50.106/mouse), either with concomitant BiP (100 μg/mouse) or with PBS/vehicle, were injected into the peritoneal cavity of SCID mice. After 11d the cells were flushed from the peritoneal cavity and investigated by flow cytometry. (A) Intracellular expression of IL-4 was measured 3 h post ex vivo stimulation with PMA (10 ng/ml) and ionomycin (1 μg/ml) in the presence of monensin. (B) surface expression of HLA-DR CD4+ cells. The mean and standard deviation of 3 experiments are shown
The biomarkers were investigated in two situations: 1) when 50.10^6 human peripheral blood mononuclear cells were injected intraperitoneally, with or without BiP (100 μg), into a mouse and the cells were harvested from the peritoneum 11 days later; or (2) BiP (200 μg) was injected intravenously into a mouse and the spleens and lymph nodes removed 11 days later.
In each of three experiments, two/three mice were injected either with BiP treated human peripheral blood mononuclear cells (hPBMC) (50.10^6/mouse) and or untreated hPBMC. The mice were sacrificed 11 days later, the peritoneal cavity washed out and the cells collected for immunofluorescence and flow cytometric analysis. The cells were particularly stained for TH2 markers and intracellular anti-inflammatory cytokines.
SCID mice were given an intraperitoneal injection of human PBMC (50.106/mouse) in the presence or absence of BiP (100 μg/mouse) and sacrificed 11d later when the peritoneum was washed out with PBS and the remaining cells collected for analysis. Cells were examined for the intracellular presence of IL-4 or IFNγ and for cell surface molecules such as HLA-DR and CD86.

T cells [2] = test: Direct effect of BiP on T cells / PBMC: marker expression; assay type: cell-based, human
Method: CCR4 and CCR5 expression by T cells.
Immunofluorescent staining was performed as follows when required. Cells were suspended in immunofluorescent buffer (IF) (PBS/0.1% BSA/0.05% azide) washed and incubated for 10 mins on ice with normal human serum. After washing twice in IF buffer, saturating concentrations of fluorescein isothiocyanate (FITC)-, phycoerythrin (PE) or peridium chlorophyll (Per-CP)-conjugated monoclonal antibodies (mAb) recognizing human CD14, CD86, CD80, HLA-DR, CD11c, CD1a, CD83, CD40 and CD85j, (all from Becton Dickinson/PharMingen, Oxford, UK) were added singly or in combination, as stated in the text, to cells for 20 mins on ice. Cells were then washed twice in IF buffer and analysed. Isotype controls, IgG1 and IgG2a (Becton Dickinson, Oxford, UK) were used in parallel.
Another group of regulatory T cells recently described are characterised by the expression of CD8CD122.

T cells [3] = test: Regulatory markers on T cells co-cultured with BiP-treated dendritic cells; assay type: cell-based, human
Method: FIG. 11: Co-culture of T cells with BiP-treated dendritic cells (DC) upregulates regulatory markers. […] Mean ±standard deviation of three experiments is shown.
Intracellular staining was carried out with fixed cells incubated with 1% paraformaldehyde in IF buffer for 5 minutes at room temperature. The cells were washed twice with IF buffer containing 0.3% saponin for permeabilization. 0.3% saponin was then present in all IF buffer used thereafter. CTLA-4/CD152 (BD), FoxP3 (eBioscience) and indolamine 2,3-dioxygenase (Santa Cruz) and cytokines required intracellular staining. Antibodies were added at the pre-determined optimal concentration for 20 mins and then the cells were washed twice with IF buffer and analysed. Isotype controls, IgG1 and IgG2a (Becton Dickinson, Oxford, UK) were used in parallel. Cells were analysed on a FACScan cytometer using Cellquest software (Becton Dickinson, Oxford, UK).
T cells were purified from peripheral blood mononuclear cells and set up in culture with either allogeneic or autologous dendritic cells, which had been washed and irradiated, at a ratio of 10 T cells:1 DC. The cells were co-cultured in a 24 well plate in 1 ml/well, in RPMI 1640 supplemented with 10% foetal calf serum, for 4 days then the T cells were removed and washed before being investigated for the presence of T regulatory cells (see below)
Immunofluorescent staining was performed, as described previously (39), on DC harvested at day 7, T cells after 4 days co-culture with DC. Saturating concentrations of fluorescein isothiocyanate (FITC)-, phycoerythrin (PE) or peridium chlorophyll (Per-CP)-conjugated mAb were added recognizing CD14, CD86, CD80, HLA-DR, CD11c, CD1a, CD83, CD85j, IL-10 receptor; purity of the negatively selected MO and T cells was checked using CD3, CD4, CD14, CD20 and CD57 (all from Becton Dickinson/PharMingen (BD), Oxford, UK). Intracellular staining was carried out following fixation of cells with 1% paraformaldehyde for 5 minutes. Cells were then washed with immunofluorescence buffer (PBS/0.1% BSA/0.05% azide) containing 0.3% saponin. 0.3% saponin was then present in all solutions thereafter. CD152/CTLA-4 (BD, Oxford UK) and IDO (Santa Cruz, Autogen Bioclear, UK) were intracellular stains. Isotype controls, IgG1 and IgG2a (BD, Oxford, UK) were used in parallel. Cells were analysed on a FACScan/FACScalibur cytometers using Cellquest software (BD, Oxford, UK).

[4] = test system: indoleamine 2,3-dioxygenase (IDO); test: Intracellular indoleamine 2,3-dioxygenase in mature dendritic cells (flow cytometry); assay type: cell-based, human; settings: mDC(BiP)
Method: Purified monocytes (>85% monocytes)(1.5.10^6/flask)(Corning Costar, High Wycombe, UK) were incubated in 5 ml of tissue culture medium (TCM)(RPMI 1640 medium (Sigma, Poole, UK) supplemented with 10% heat-inactivated foetal calf serum (FCS)(Life Technologies, Paisley, UK). iDC were generated using granulocyte macrophage—colony stimulating factor (GM-CSF) (1000 U/ml)(Novartis Research Institute, Vienna, Austria) and IL-4 (500 U/ml) (R&D Systems, Oxford, UK). Monocytes were cultured for 3 or 7 days with cytokines, either alone or in the presence of rhuBiP (20 μg/ml). Mature DC were generated by addition of 500 ng/ml lipopolysaccharide (LPS) for the final 2 days of culture.
Intracellular staining was carried out with fixed cells incubated with 1% paraformaldehyde in IF buffer for 5 minutes at room temperature. The cells were washed twice with IF buffer containing 0.3% saponin for permeabilization. […] Antibodies were added at the pre-determined optimal concentration for 20 mins and then the cells were washed twice with IF buffer and analysed. […] Cells were analysed on a FACScan cytometer using Cellquest software (Becton Dickinson, Oxford, UK). […]
Immunofluorescent staining was performed, as described previously (39), on DC harvested at day 7, T cells after 4 days co-culture with DC. […] Cells were analysed on a FACScan/FACScalibur cytometers using Cellquest software (BD, Oxford, UK).

[5] = Example 4, hPBMC recovered from peritoneum after 11 days

Substance: BiP: 78 kD endoplasmic reticulum chaperone protein as disclosed in WO 00/21995; recombinant human protein
- cells with intracellular IFNγ [1, 5]: 23.5±4%
- cells with intracellular IL-4 [1, 5]: 16.2±0.5%
- cells with intracellular IL-5 [1, 5]: 29±7%
- intracellular IL-4 in CD4+ cells ([1]; Example 10, BiP 100 μg/mouse, 11 days, ex vivo PMA and ionomycin 3 h, n=5): 38.2±20%
- surface HLA-DR on CD4 T cells ([1]; Example 10, BiP 100 μg/mouse, 11 days, n=5): 50±6.2%
- CCR5 expression by T cells (T cells [2]; PBMC incubated with BiP for four days (FIG. 4)): slightly downregulated
- CCR4 expression by T cells (T cells [2]; PBMC incubated with BiP for four days, three experiments (FIG. 4)): significantly raised
- CD8CD122 expression (T cells [2]; T cells after 7 days incubation with BiP, n=3): 75.6%±23.5%
- intracellular CTLA-4 in T cells in contact with mDC(BiP) (T cells [3]; FIG. 11B): significant upregulation of intracellular CTLA-4
- T cell surface expression for CD4CD25hiCD27hi (T cells [3]; after 4d contact with mDC(BiP), n=5): 2.5±0.2%
- intracellular CTLA-4/CD152 in T cells (T cells [3]; after contact with BiP treated DC, n=4): 31±12
- cell surface CCR4 on T cells (T cells [3]; after contact with mDC(BiP), n=4): 17.3±2.0%
- cells containing intracellular IDO ([4]; mean ±standard deviation, n=9 (Example 10)): 14.1±7.1%
- cells containing intracellular IDO ([4]; n=4 (Example 1)): 17.6±8.6%
